Test results as given in patent publication US10035760B2, “Inhibitors of human immunodeficiency virus replication” (priority 2013, dated 2018).
Where two headings read alike, the source gives them in different places.

Test system: recombinant NL4-3 virus (Renilla luciferase) in MT-2 cells
Test: HIV cell culture assay (antiviral activity, luciferase readout in infected MT-2 cells)
Format: cell-based
Summary of the method: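 Nef-deleted NL4-3 carrying Renilla luciferase, produced by 293T transfection, used to infect MT-2 cells for 4–5 days with serial compound dilutions. Live-cell luciferase signal read as infection marker; EC50 from exponential median-effect equation.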

[1] = Renilla, NL43, read-out: Activity, antiviral activity class, recombinant NL4-3 Renilla luciferase virus in MT-2 cells
[2] = Renilla, NL43, recombinant NL4-3 Renilla luciferase virus in MT-2 cells

With CCN(C(=O)[C@H](Cc1ccccc1)NC(=O)NS(=O)(=O)c1cccc2ccccc12)c1ccc(OC)cc1 [Example 116, (S)—N-ethyl-N-(4-methoxyphenyl)-2-(3-(naphthalen-1-ylsulfonyl)ureido)-3-phenylpropanamide] the EC50 [1] was less than 0.1 µM.

For COc1ccc(N(C)C(=O)[C@H](Cc2ccccc2)NC(=O)NS(=O)(=O)c2ccccc2C)cc1C [Example CA-77, (S)—N-(4-methoxy-3-methylphenyl)-N-methyl-3-phenyl-2-(3-(o-tolylsulfonyl)ureido)propanamide], the EC50 [1] was less than 0.1 µM.

In the case of CCN(C(=O)[C@H](Cc1ccccc1)NC(=O)NS(=O)(=O)c1ccccc1C)c1ccc(OC(F)(F)F)cc1 [Example 178, (S)—N-ethyl-3-phenyl-2-(3-(o-tolylsulfonyl)ureido)-N-(4-(trifluoromethoxy)phenyl)propanamide], the EC50 [1] is reported as less than 0.1 µM and the EC50 [2] is reported as 0.08 µM.

Molecule COc1cccc(S(=O)(=O)NC(=O)N[C@@H](Cc2ccccc2)C(=O)N(C)c2ccc3c(c2)OCO3)c1 [Example 20, (S)—N-(benzo[d][1,3]dioxol-5-yl)-2-(3-((3-methoxyphenyl)sulfonyl)ureido)-N-methyl-3-phenylpropanamide] has an EC50 [1] of less than 0.1 µM and an EC50 [2] of 0.09 µM.

In the case of Cc1ccccc1S(=O)(=O)NC(=O)N[C@@H](Cc1ccccc1Br)C(=O)N(C)c1ccc2c(c1)OCO2 [Example 76, (S)—N-(benzo[d][1,3]dioxol-5-yl)-3-(2-bromophenyl)-N-methyl-2-(3-(o-tolylsulfonyl)ureido)propanamide], the EC50 [1] is reported as 1 to 10 µM.

Molecule CCc1ccc(C)c(S(=O)(=O)NC(=O)N[C@@H](Cc2ccccc2)C(=O)N(CC)c2ccc(OC)cc2)c1 [Example 144, (S)—N-ethyl-2-(3-((5-ethyl-2-methylphenyl)sulfonyl)ureido)-N-(4-methoxyphenyl)-3-phenylpropanamide] has an EC50 [1] of 0.1 to 1 µM and an EC50 [2] of 0.62 µM.

With COc1ccc(N(C)C(=O)[C@H](Cc2cccnc2)NC(=O)NS(=O)(=O)c2ccccc2C)cc1 [Example 194, (S)—N-(4-methoxyphenyl)-N-methyl-3-(pyridin-3-yl)-2-(3-(o-tolylsulfonyl)ureido)propanamide] the EC50 [1] was 10 to 100 µM.

Molecule CN(C(=O)[C@H](Cc1ccccc1)NC(=O)NS(=O)(=O)c1ccc([N+](=O)[O-])cc1)c1ccc2c(c1)OCO2 [Example 21, (S)—N-(benzo[d][1,3]dioxol-5-yl)-N-methyl-2-(3-((4-nitrophenyl)sulfonyl)ureido)-3-phenylpropanamide] has an EC50 [1] of 1 to 10 µM.

Molecule COc1ccc(N(C)C(=O)[C@H](Cc2ccccc2)NC(=O)NS(=O)(=O)c2c(C)n(C)c3ccccc23)cc1 [Example JB-85, (S)-2-(3-((1,2-dimethyl-1H-indol-3-yl)sulfonyl)ureido)-N-(4-methoxyphenyl)-N-methyl-3-phenylpropanamide] has an EC50 [1] of 0.1 to 1 µM.

CCN(C(=O)[C@H](Cc1ccccc1)NC(=O)NS(=O)(=O)c1cccc(-c2ccoc2)c1C)c1ccc(OC)cc1 [Example 122, (S)—N-ethyl-2-(3-((3-(furan-3-yl)-2-methylphenyl)sulfonyl)ureido)-N-(4-methoxyphenyl)-3-phenylpropanamide] showed an EC50 [1] of 0.1 to 1 µM.

Molecule CN(C(=O)[C@H](Cc1ccccc1)NC(=O)NS(=O)(=O)Cc1ccc(F)cc1)c1ccc2c(c1)OCO2 [Example 110, (S)—N-(benzo[d][1,3]dioxol-5-yl)-2-(3-((4-fluorobenzyl)sulfonyl)ureido)-N-methyl-3-phenylpropanamide] has an EC50 [1] of 0.1 to 1 µM and an EC50 [2] of 0.16 µM.

Molecule C=C(C)c1cccc(S(=O)(=O)NC(=O)N[C@@H](Cc2ccccc2)C(=O)N(CC)c2ccc(OC)cc2)c1 [Example 139, (S)—N-ethyl-N-(4-methoxyphenyl)-3-phenyl-2-(3-((3-(prop-en-2-yl)phenyl)sulfonyl)ureido)propanamide] has an EC50 [1] of less than 0.1 µM.

In the case of Cc1ccc(C)c(S(=O)(=O)NC(=O)N[C@@H](Cc2ccccc2)C(=O)N(C)c2ccc3c(c2)OCO3)c1 [Example 13, (S)—N-(benzo[d][1,3]dioxol-5-yl)-2-(3-((2,5-dimethylphenyl)sulfonyl)ureido)-N-methyl-3-phenylpropanamide], the EC50 [1] is reported as less than 0.1 µM and the EC50 [2] is reported as 0.05 µM.

Cc1ccccc1S(=O)(=O)NC(=O)N[C@@H](Cc1cc(F)cc(F)c1)C(=O)N(C)c1ccc2cc[nH]c(=O)c2c1 [Example CA-103, (S)-3-(3,5-difluorophenyl)-N-methyl-N-(1-oxo-1,2-dihydroisoquinolin-7-yl)-2-(3-(o-tolylsulfonyl)ureido)propanamide] was tested, and the EC50 [1] was 1 to 10 µM and the EC50 [2] was 1.33 µM.

For CN(C(=O)[C@H](Cc1ccccc1)NC(=O)NS(=O)(=O)c1ccccc1)c1ccccc1 [Example 87, (S)—N-methyl-N, 3-diphenyl-2-(3-(phenylsulfonyl)ureido)propanamide], the EC50 [1] was 0.1 to 1 µM.

Work on “(S)-2-(3-([1,1′-biphenyl]-2-ylsulfonyl)ureido)-N-(benzo[d][1,3]dioxol-5-yl)-N-methyl-3-phenylpropanamide [Example 48]” yielded an EC50 (antiviral activity class, recombinant NL4-3 Renilla luciferase virus in MT-2 cells, read-out: Activity) of 1 to 10 µM.

In the case of CN(C(=O)[C@H](Cc1ccccc1)NC(=O)NS(=O)(=O)c1ccccc1-c1ccsc1)c1ccc2c(c1)OCO2 [Example 132, (S)—N-(benzo[d][1,3]dioxol-5-yl)-N-methyl-3-phenyl-2-(3-((2-(thiophen-3-yl)phenyl)sulfonyl)ureido)propanamide], the EC50 [1] is reported as 10 to 100 µM.

In the case of C=CCOc1ccc(N(C)C(=O)[C@H](Cc2ccccc2)NC(=O)NS(=O)(=O)c2ccccc2C)cc1 [Example 216, (S)—N-(4-(allyloxy)phenyl)-N-methyl-3-phenyl-2-(3-(o-tolylsulfonyl)ureido)propanamide], the EC50 [1] is reported as less than 0.1 µM.

Cc1ccccc1S(=O)(=O)NC(=O)N[C@@H](Cc1ccccc1)C(=O)N(C)Cc1ccccn1 [Example 180, (S)—N-methyl-3-phenyl-N-(pyridin-2-ylmethyl)-2-(3-(o-tolylsulfonyl)ureido)propanamide] was tested, and the EC50 [1] was 1 to 10 µM.

Work on Cc1ccccc1S(=O)(=O)NC(=O)N[C@@H](Cc1ccccc1)C(=O)N1CCCc2ccccc21 [Example 170, (S)—N-((1-(3,4-dihydroquinolin-1(2H)-yl)-1-oxo-3-phenylpropan-2-yl)carbamoyl)-2-methylbenzenesulfonamide] yielded an EC50 [1] of 1 to 10 µM.

CN(C(=O)[C@H](Cc1ccccc1)NC(=O)NS(=O)(=O)c1ccccc1-c1ccc(CO)cc1)c1ccc2c(c1)OCO2 [Example 124, (S)—N-(benzo[d][1,3]dioxol-5-yl)-2-(3-((4′-(hydroxymethyl)-[1,1′-biphenyl]-2-yl)sulfonyl)ureido)-N-methyl-3-phenylpropanamide] showed an EC50 [1] of 1 to 10 µM.

Work on Cc1ccccc1S(=O)(=O)NC(=O)N[C@@H](Cc1cccc(Cl)c1)C(=O)N(C)c1ccc2c(c1)OCO2 [Example 55, (S)—N-(benzo[d][1,3]dioxol-5-yl)-3-(3-chlorophenyl)-N-methyl-2-(3-(o-tolylsulfonyl)ureido)propanamide] yielded an EC50 [1] of 0.1 to 1 µM.

In the case of Cc1ccccc1S(=O)(=O)NC(=O)N[C@H](CCc1ccccc1)C(=O)N(C)c1ccc2c(c1)OCO2 [Example 210, (R)—N-(benzo[d][1,3]dioxol-5-yl)-N-methyl-4-phenyl-2-(3-(o-tolylsulfonyl)ureido)butanamide], the EC50 [1] is reported as 10 to 100 µM.

Work on Cc1ccccc1S(=O)(=O)NC(=O)N[C@@H](Cc1cccc(C(F)(F)F)c1)C(=O)N(C)c1ccc2c(c1)OCO2 [Example 71, (S)—N-(benzo[d][1,3]dioxol-5-yl)-N-methyl-2-(3-(o-tolylsulfonyl)ureido)-3-(3-(trifluoromethyl)phenyl)propanamide] yielded an EC50 [1] of 0.1 to 1 µM.
